Columns and labels:
Escherichia coli = assay: Antibacterial activity against Escherichia coli ATCC25922 assessed as reduction in microbial growth incubated for 22 to 24 hrs by CLSI based broth microdilution method; type: functional; conditions: time 22-24 hrs
Staphylococcus aureus [1] = assay: Antibacterial activity against Staphylococcus aureus ATCC25923 assessed as reduction in microbial growth incubated for 22 to 24 hrs by CLSI based broth microdilution method; type: functional; conditions: time 22-24 hrs
[2] = system: Staphylococcus epidermidis; assay: Antibacterial activity against Staphylococcus epidermidis ATCC12228 assessed as reduction in microbial growth incubated for 22 to 24 hrs by CLSI based broth microdilution method; type: functional; conditions: time 22-24 hrs
Staphylococcus aureus [3] = assay: Bactericidal activity against methicillin-resistant Staphylococcus aureus NCTC10442 assessed as cell killing at 8 times of MIC measured with in 1 hr by time kill assay relative to control; type: functional
Staphylococcus aureus [4] = assay: Bactericidal activity against Staphylococcus aureus ATCC29213 assessed as log reduction in bacterial load at 8 times of MIC measured with in 0.5 hrs by time kill assay; type: functional
Staphylococcus aureus [5] = assay: Bactericidal activity against Staphylococcus aureus ATCC29213 assessed as log reduction in bacterial load at 8 times of MIC measured with in 4 hrs by time kill assay; type: functional
[6] = Cytotoxicity against mouse NCTC clone 929 cells assessed reduction in cell viability incubated for 24 hrs by CCK-8 assay; type: toxicity, cell-based; conditions: NCTC clone 929 (L929) cells
[7] = Cytotoxicity against HEK293 cells assessed as viable cells at 100 ug/ml incubated for 24 hrs by CCK-8 assay relative to control; type: toxicity, cell-based; conditions: human, at 100 µg/mL, read-out: Activity
Staphylococcus aureus [8] = assay: Induction of membrane permeabilization in Staphylococcus aureus ATCC29213 assessed as increase in fluorescence intensity measured upto 60 mins by SYTOX green assay; type: functional, organism-based
Staphylococcus aureus [9] = assay: Drug resistance, ratio of MIC for Staphylococcus aureus ATCC29213 after 20 passages to MIC for Staphylococcus aureus ATCC29213 after initial exposure; type: functional
Staphylococcus aureus [10] = assay: Antibacterial activity against Staphylococcus aureus ATCC29213 assessed as reduction in bacterial growth incubated for 22 to 24 hrs in presence of KCl by CLSI based broth microdilution method; type: functional; conditions: time 22-24 hrs
Staphylococcus aureus [11] = assay: Antibacterial activity against Staphylococcus aureus ATCC29213 assessed as reduction in bacterial growth incubated for 22 to 24 hrs in presence of MgCl2 by CLSI based broth microdilution method; type: functional; conditions: time 22-24 hrs
Staphylococcus aureus [12] = assay: Antibacterial activity against Staphylococcus aureus ATCC29213 assessed as reduction in bacterial growth incubated for 22 to 24 hrs in presence of ZnSO4.7H2O by CLSI based broth microdilution method; type: functional; conditions: time 22-24 hrs
Staphylococcus aureus [13] = assay: Antibacterial activity against Staphylococcus aureus ATCC29213 assessed as reduction in bacterial growth incubated for 22 to 24 hrs in presence of FeCl2 by CLSI based broth microdilution method; type: functional; conditions: time 22-24 hrs
Staphylococcus aureus [14] = assay: Antibacterial activity against methicillin-resistant Staphylococcus aureus N315 assessed as reduction in bacterial growth incubated for 22 to 24 hrs in presence of ZnSO4.7H2O by CLSI based broth microdilution method; type: functional; conditions: time 22-24 hrs
Staphylococcus aureus [15] = assay: Antibacterial activity against methicillin-resistant Staphylococcus aureus N315 assessed as reduction in bacterial growth incubated for 22 to 24 hrs in presence of FeCl2 by CLSI based broth microdilution method; type: functional; conditions: time 22-24 hrs
Staphylococcus aureus [16] = assay: Antibacterial activity against methicillin-resistant Staphylococcus aureus NCTC10442 assessed as reduction in bacterial growth incubated for 22 to 24 hrs in presence of KCl by CLSI based broth microdilution method; type: functional; conditions: time 22-24 hrs
Staphylococcus aureus [17] = assay: Antibacterial activity against methicillin-resistant Staphylococcus aureus NCTC10442 assessed as reduction in bacterial growth incubated for 22 to 24 hrs in presence of FeCl3 by CLSI based broth microdilution method; type: functional; conditions: time 22-24 hrs
Staphylococcus aureus [18] = assay: Synergistic […] activity against Staphylococcus aureus ATCC29213 assessed as fractional inhibitory concentration index incubated for 22 to 24 hrs in presence of fusidic acid by CLSI based broth microdilution method; type: functional; conditions: time 22-24 hrs
Staphylococcus aureus [19] = assay: Synergistic […] activity against Staphylococcus aureus ATCC29213 assessed as fractional inhibitory concentration index incubated for 22 to 24 hrs in presence of linezolid by CLSI based broth microdilution method; type: functional; conditions: time 22-24 hrs
Staphylococcus aureus [20] = assay: Synergistic […] activity against methicillin-resistant Staphylococcus aureus NCTC10442 assessed as fractional inhibitory concentration index incubated for 22 to 24 hrs in presence of linezolid by CLSI based broth microdilution method; type: functional; conditions: time 22-24 hrs
Staphylococcus aureus [21] = assay: Synergistic […] activity against Staphylococcus aureus ATCC29213 assessed as fractional inhibitory concentration index incubated for 22 to 24 hrs in presence of mupirocin by CLSI based broth microdilution method; type: functional; conditions: time 22-24 hrs
Staphylococcus aureus [22] = assay: Synergistic […] activity against Staphylococcus aureus ATCC29213 assessed as fractional inhibitory concentration index incubated for 22 to 24 hrs in presence of vancomycin by CLSI based broth microdilution method; type: functional; conditions: time 22-24 hrs
Staphylococcus aureus [23] = assay: Synergistic […] activity against methicillin-resistant Staphylococcus aureus NCTC10442 assessed as fractional inhibitory concentration index incubated for 22 to 24 hrs in presence of fusidic acid by CLSI based broth microdilution method; type: functional; conditions: time 22-24 hrs
Staphylococcus aureus [24] = assay: Synergistic […] activity against methicillin-resistant Staphylococcus aureus NCTC10442 assessed as fractional inhibitory concentration index incubated for 22 to 24 hrs in presence of vancomycin by CLSI based broth microdilution method; type: functional; conditions: time 22-24 hrs
Klebsiella pneumoniae [25] = assay: Synergistic […] activity against Klebsiella pneumoniae ATCC10031 assessed as fractional inhibitory concentration index incubated for 22 to 24 hrs in presence of gentamicin by CLSI based broth microdilution method; type: functional; conditions: time 22-24 hrs
Klebsiella pneumoniae [26] = assay: Synergistic […] activity against Klebsiella pneumoniae ATCC10031 assessed as fractional inhibitory concentration index incubated for 22 to 24 hrs in presence of meropenem by CLSI based broth microdilution method; type: functional; conditions: time 22-24 hrs
Acinetobacter baumannii = assay: Synergistic […] activity against Acinetobacter baumannii ATCC17978 assessed as fractional inhibitory concentration index incubated for 22 to 24 hrs in presence of tobramycin by CLSI based broth microdilution method; type: functional; conditions: time 22-24 hrs
[27] = Cytotoxicity against mouse NCTC clone 929 cells assessed as viable cells at 6.25 ug/ml incubated for 24 hrs by CCK-8 assay relative to control; type: toxicity, cell-based; conditions: NCTC clone 929 (L929) cells, at 6.25 µg/mL, read-out: Activity
[28] = Cytotoxicity against mouse NCTC clone 929 cells assessed as viable cells at 12.5 ug/ml incubated for 24 hrs by CCK-8 assay relative to control; type: toxicity, cell-based; conditions: NCTC clone 929 (L929) cells, at 12.5 µg/mL, read-out: Activity
[29] = Cytotoxicity against mouse NCTC clone 929 cells assessed as viable cells at 50 ug/ml incubated for 24 hrs by CCK-8 assay relative to control; type: toxicity, cell-based; conditions: NCTC clone 929 (L929) cells, at 50 µg/mL, read-out: Activity
[30] = Cytotoxicity against HEK293 cells assessed as viable cells at 6.25 ug/ml incubated for 24 hrs by CCK-8 assay relative to control; type: toxicity, cell-based; conditions: human, at 6.25 µg/mL, read-out: Activity
[31] = Cytotoxicity against HEK293 cells assessed as viable cells at 25 ug/ml incubated for 24 hrs by CCK-8 assay relative to control; type: toxicity, cell-based; conditions: human, at 25 µg/mL, read-out: Activity

COC(=O)[C@H](CCCNC(=N)N)NC(=O)[C@H](CCCNC(=N)N)NC(=O)COc1ccc(S(=O)(=O)c2ccc(OC/C=C(/C)CCC=C(C)C)cc2)cc1
MIC (Escherichia coli): 6.25 µg/mL | MIC (Staphylococcus aureus [1]): 3.12 µg/mL | MIC [2]: 1.56 µg/mL | Activity (Staphylococcus aureus [3]): 99.99% | log(activity) (Staphylococcus aureus [4]): 3 | log(activity) (Staphylococcus aureus [5]): 3 | CC50 at 24 h [6]: > 100 µg/mL | viability at 24 h, 100 ug/ml [7]: 79.4% | Activity (Staphylococcus aureus [8]): Dose-Dependent Effect | Ratio (Staphylococcus aureus [9]): 4 | MIC (Staphylococcus aureus [10]): 1.56 µg/mL | MIC (Staphylococcus aureus [11]): 1.56 µg/mL | MIC (Staphylococcus aureus [12]): 1.56 µg/mL | MIC (Staphylococcus aureus [13]): 1.56 µg/mL | MIC (Staphylococcus aureus [14]): 1.56 µg/mL | MIC (Staphylococcus aureus [15]): 1.56 µg/mL | MIC (Staphylococcus aureus [16]): 1.56 µg/mL | MIC (Staphylococcus aureus [17]): 1.56 µg/mL | fractional inhibitory concentration index (FICI) (Staphylococcus aureus [18]): 0.28 | fractional inhibitory concentration index (FICI) (Staphylococcus aureus [19]): 0.28 | fractional inhibitory concentration index (FICI) (Staphylococcus aureus [20]): 0.27 | fractional inhibitory concentration index (FICI) (Staphylococcus aureus [21]): 0.625 | fractional inhibitory concentration index (FICI) (Staphylococcus aureus [22]): 0.5 | fractional inhibitory concentration index (FICI) (Staphylococcus aureus [23]): 0.5 | fractional inhibitory concentration index (FICI) (Staphylococcus aureus [24]): 0.5 | fractional inhibitory concentration index (FICI) (Klebsiella pneumoniae [25]): 0.5 | fractional inhibitory concentration index (FICI) (Klebsiella pneumoniae [26]): 0.56 | fractional inhibitory concentration index (FICI) (Acinetobacter baumannii): 0.56 | viability at 24 h, 6.25 ug/ml [27]: 91.5% | viability at 24 h, 12.5 ug/ml [28]: 88.9% | viability at 24 h, 50 ug/ml [29]: 84.7% | viability at 24 h, 6.25 ug/ml [30]: 96.1% | viability at 24 h, 25 ug/ml [31]: 93.8%

— ChEMBL document CHEMBL5584236, “Development of novel bisphenol derivatives with a membrane-targeting mechanism as potent gram-positive antibacterial agents” (Eur J Med Chem, 2024)
